Measurements from US8455546B2, “Medicament having promoting action on hepatocyte proliferation” (Josai University Educational Corporation, priority 2007, dated 2013).
Read-outs that look alike come from different tables or passages of the source.

How the values were obtained:
[1] = system: primarily cultured rat hepatocytes; test: Influence on cell density-dependent proliferation of primarily cultured rat hepatocytes; type: cell-based; settings: cell densities 1-10×10^4 cells/cm^2; NIK-333 10^−9, trans 10^−7, GGP 10^−6 mol/L; four hours; FIG. 2
Text: Hepatocytes isolated by the same method as that of Example 1 were inoculated at cell densities of 1, 2, 3.3, 5, 7, and 10×10^4 cells/cm^2. NIK-333 (10^−9 mol/L), trans (10^−7 mol/L), cis (10^−6 mol/L), GG (10^−7 mol/L), and GGP (10^−6 mol/L) were each added to the hepatocytes pre-cultured in the same manner as that of Example 1.

[2] = system: cell lines derived from human hepatoma (HuH-7, JHH-7, HLF, Hep G2); test: Influence on proliferation of cell lines derived from human hepatoma (WST-1 live cell count); type: cell-based; settings: 10^−11 to 10^−7 mol/L, cultured overnight, FIG. 3
Experimental: The cells were inoculated on a 96-well plate at a cell density of 1×10^4 cells/mL, and cultured overnight at 37° C. in the presence of 5% CO2. […] The cells were cultured overnight at 37° C. in the presence of 5% CO2, and live cell count was measured. The live cell count was measured by using Cell Counting Kit (Wako Pure Chemical Industries). […] Absorbance was measured for each well at a measurement wavelength of 450 nm and a reference wavelength of 655 nm using a microplate reader.

[3] = system: 70% partially hepatectomized rat (PH rat); test: Liver regeneration in 70% partially hepatectomized rat (PH rat); type: in vivo; settings: 0.4 mg/kg/day p.o.
Experimental: Hepatocyte proliferation promoting effect of NIK-333 was examined by using a 70% partially hepatectomized rat (partial hepatectomy: PH rat) as an in vivo experiment system.
Wistar male rats (weight: 130 to 170 g) were subjected to 70% partial hepatectomy according to the method of Higgins G. M. et al. (Arch. Pathol., 12, pp. 186-202, 1931) to prepare PH rats. NIK-333 (solvent was soybean oil, 0.4 mg/kg/day) was orally administered to these PH rats once per day, the administration was repeated and continued for 1 to 14 days, and reaction was observed over time. The model animals fed for 1 to 14 days after the hepatectomy were subjected to abdominal section under diethyl ether anesthesia, and the remaining livers were extracted. The remaining livers were separated into normal hepatic tissues and necrotizing hepatic tissues (liver tissues which were not excisable by the partial hepatectomy and remained), and weight of each was measured (wet weight). The examination was performed for three animals for each group, and the results are indicated as average±standard error. Student t-test was performed between a solvent administered group (soybean oil, 4 mL/kg, p.o.) as a control group and the NIK-333 administered group. The significance level of the test was set at 5% and 1% on both sides.

[4] = system: primarily cultured mouse hepatocytes; settings: cited from earlier work
[5] = system: rat partially hepatectomized model; settings: rat partially hepatectomized model (Non-patent document 9); cited from earlier work
hepatoma = settings: long-term administration over one year (Non-patent document 6); cited from earlier work
[6] = system: primarily cultured rat hepatocytes; test: Effect of promoting proliferation of primarily cultured rat hepatocytes (number of nuclei); settings: FIG. 1; for effect of promoting proliferation of primarily cultured rat hepatocytes (number of nuclei): 10^−11 to 10^−7 (and 10^−8 as printed) mol/L, four hours after addition, 3.3×10^4 cells/cm^2, vs solvent control
Experimental: (§1) Wistar male rats (weight: 200 to 205 g) were used, and hepatocytes were isolated by the in situ collagenase perfusion technique according to the method of Seglen et al. (Methods. Cell Biol., 13, pp. 29-83, 1975). The isolated hepatocytes were suspended in the Williams' medium E (containing 0.1 μg/mL aprotinin, 100 U/mL of penicillin G, 0.1 mg/mL of streptomycin, and 0.1 nmol/L of dexamethasone) containing 5% bovine neonate serum 3 times for washing, and then inoculated on a collagen coated culture dish (35 mm Φ) at a cell density of 3.3×10^4 cells/cm^2. The cells were adhered to the culture dish by culturing them at 37° C. for 3 hours in the presence of 5% CO2 to prepare a primarily cultured hepatocyte cell line. Survival rate of the isolated hepatocytes was obtained by the trypan blue exclusion method, and those showing a survival rate not lower than 93% were used for the following experiments.
(§2) Four hours after the addition of the agents, number of nuclei was measured as follows. The hepatocytes were washed with PBS, and then added with 0.25 mL of a 0.1 mol/L citric acid solution containing 0.1% Triton X-100. The cells were incubated at 37° C. for 30 minutes to solubilize the cell membranes and thereby obtain naked nuclei. The same volume of a PBS solution containing 0.3% trypan blue was further added, and number of the stained nuclei was measured with a hemacytometer.

[7] = system: primarily cultured rat hepatocytes
Experimental: as §1, §2

[8] = system: mouse liver carcinogenic model; settings: reported; cited from earlier work

CC(C)=CCC/C(C)=C/CC/C(C)=C/C=C/C(C)=C/C(=O)O [NIK-333, (2E,4E,6E,10E)-3,7,11,15-tetramethyl-2,4,6,10,14-hexadecapentaenoic acid]
cell proliferation promoting action with increasing cell density [1]: decreased with the increase of the cell density | proliferation promotion action for human hepatoma cell strains (live cell count) [2]: no proliferation promotion action | recovery of liver weight compared with the control group ([3]; 1 to 14 days): earlier recovery of liver weight | hyperproliferation exceeding the value of the Sham group ([3]; 14th day after PH): not observed | increase rate of liver weight ([3]; 3 days after PH): 85% | liver weight ([3]; 3 days after PH, g liver weight/100 g body weight): 3.0 g LW/BW | effect on proliferation of primarily cultured mouse hepatocytes ([4]; at a concentration inducing apoptosis of hepatoma cells (Non-patent documents 7 and 8)): does not affect proliferation | DNA synthesis of regenerated liver [5]: delays DNA synthesis | recurrence of hepatoma after radical cure (hepatoma): significantly suppressed | effect of promoting proliferation of primarily cultured rat hepatocytes (number of nuclei) [6]: significant effect of promoting proliferation | relative strength of the proliferation promoting effect among the tested agents ([6]; comparison of NIK-333, trans, cis, GG, GGP): strongest effect

CC1=C(/C=C/C(C)=C/C=C/C(C)=C/C(=O)O)C(C)(C)CCC1 [trans, all-trans-retinoic acid]
cell proliferation promoting action with increasing cell density [1]: gave the cell proliferation promoting action even when the cell density was increased | effect of promoting proliferation of primarily cultured rat hepatocytes (number of nuclei) [7]: significant effect of promoting proliferation | proliferation of mouse hepatocytes ([4]; reported, no concentration given): induce the proliferation of mouse hepatocytes | oncogenesis in mouse liver carcinogenic model [8]: promote oncogenesis

CC(C)=CCC/C(C)=C/CC/C(C)=C/CC/C(C)=C/COP(=O)(O)OP(=O)(O)O.N.N.N [GGP, geranylgeranyl pyrophosphate ammonium salt, reference compound]
cell proliferation promoting action with increasing cell density [1]: decreased with the increase of the cell density | effect of promoting proliferation of primarily cultured rat hepatocytes (number of nuclei) [6]: significant effect of promoting proliferation
